Assay [1] deals with T1, SFRP-1 (Homo sapiens, UniProt Q8N474).
T1 sequence (Q8N474 32-314): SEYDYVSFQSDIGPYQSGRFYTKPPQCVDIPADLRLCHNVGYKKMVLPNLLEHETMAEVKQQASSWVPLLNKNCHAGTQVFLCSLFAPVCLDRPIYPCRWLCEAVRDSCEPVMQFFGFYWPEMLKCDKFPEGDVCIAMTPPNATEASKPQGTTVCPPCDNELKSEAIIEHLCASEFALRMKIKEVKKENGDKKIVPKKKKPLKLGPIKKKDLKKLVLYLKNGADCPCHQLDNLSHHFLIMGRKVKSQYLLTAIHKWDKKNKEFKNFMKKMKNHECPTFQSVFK
The experiment in a line: Fluorescence polarization binding assay (competitive displacement of a probe compound from SFRP-1).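 Note: test compound competes with a fluorescent probe held by SFRP-1, seen as a drop in probe anisotropy after incubation in darkness, with anisotropy as function of rising compound dose.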 The following applies: fluorescence anisotropy, 45 nM SFRP-1, 20 nM probe. Background: Fluorescence polarisation rises when a labelled molecule tumbles more slowly, as on binding a larger partner.

In assay [2] the target is T1, SFRP-1. The assay is described as follows: Cell-based assay for in vitro measurement of SFRP-1/SARP2 antagonist activity (U2OS cells co-transfected with 16x TCF-tk-Luciferase reporter, Wnt and hSFRP-1).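 Note: U2OS cells co-transfected with a TCF-tk luciferase reporter, a Wnt vector, hSFRP-1 or empty vector and CMV-βgal, luciferase luminescence read in cell lysates alongside βgal activity.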 The following applies: U2OS, single dose, luciferase reporter. A general note: In a reporter assay the amount or activity of a reporter protein is the signal.
[3] abbreviates: read-out: Fold Induction with SFRP-1, Conc 15 μM, fold induction over SFRP-1 control, cells with SFRP-1.
The mark [4] stands for this setting: read-out: Fold Induction without SFRP-1, Conc 15 μM, cells without SFRP-1 (specificity control).

pIC50: −log10 of the molar value. Values joined by “and” are separate entries in the source; they are usually repeats but may differ in a detail not shown here. Equal values may be shown once. Read-outs that look alike come from different tables or passages of the source.

For `CC(C)c1ccc(S(=O)(=O)c2ccc(F)cc2)cc1S(=O)(=O)NC1CCNCC1` [Example 520, 5-[(4-fluorophenyl)sulfonyl]-2-isopropyl-N-piperidin-4-ylbenzenesulfonamide], the pIC50 – broadly, −log10 of the IC50, conventionally taken in molar units – at SFRP-1 [1] is 5.62. Also, the fold induction at 15 µM turned out to be 3.3 on SFRP-1 [2] (setting [3]) and 1.1 on SFRP-1 [2] (setting [4]).

In turn, `CC(C)c1ccc(S(=O)(=O)c2ccc(F)cc2)cc1S(=O)(=O)NC1CCCC1` [Example 523, N-cyclopentyl-5-[(4-fluorophenyl)sulfonyl]-2-isopropylbenzenesulfonamide] had a pIC50 on SFRP-1 [1] of 5.52. For the same compound, the fold induction at 15 µM came out at 2.1 at SFRP-1 [2] (setting [3]) and 1 on SFRP-1 [2] (setting [4]).

In the case of `CC(C)c1ccc(S(=O)(=O)c2ccc(F)cc2)cc1S(=O)(=O)NC1CCN(Cc2ccccc2)CC1` [Example 525, N-(1-benzylpiperidin-4-yl)-5-[(4-fluorophenyl)sulfonyl]-2-isopropylbenzenesulfonamide], the negative-log IC50 (pIC50) on SFRP-1 [1] was 6.00. Further, the fold induction at 15 µM at SFRP-1 [2] (setting [3]) was 2.1; at SFRP-1 [2] (setting [4]) it was 1.1.

Turning to `CCOC(=O)N1CCC(NS(=O)(=O)c2cc(S(=O)(=O)c3ccc(F)cc3)ccc2C(C)C)CC1` [Example 526, ethyl 4-[({5-[(4-fluorophenyl)sulfonyl]-2-isopropylphenyl}sulfonyl)amino]piperidine-1-carboxylate], the pIC50 on SFRP-1 [1] was 6.30. Further, the fold induction at 15 µM at SFRP-1 [2] (setting [3]) was 2.1; at SFRP-1 [2] (setting [4]) it was 1.1.

`CNc1ccc(S(=O)(=O)c2ccc(C(C)C)c(S(=O)(=O)NC3CCN(C(=O)OC(C)(C)C)CC3)c2)cc1` [Example 528, tert-butyl 4-{[(2-isopropyl-5-{[4-(methylamino)phenyl]sulfonyl}phenyl)sulfonyl]amino}piperidine-1-carboxylate] gave a negative-log IC50 (pIC50) on SFRP-1 [1] of 6.52. In addition, the fold induction at 15 µM on SFRP-1 [2] (setting [3]) came to 2.5; at SFRP-1 [2] (setting [4]) it was 1.1.

The compound `CC(=O)N1CCC(NS(=O)(=O)c2cc(S(=O)(=O)c3ccc(F)cc3)ccc2C(C)C)CC1` [Example 529, N-(1-acetylpiperidin-4-yl)-5-[(4-fluorophenyl)sulfonyl]-2-isopropylbenzenesulfonamide] had a negative-log IC50 (pIC50) on SFRP-1 [1] of 6.30. The fold induction at 15 µM on SFRP-1 [2] (setting [3]) came to 2.8; on SFRP-1 [2] (setting [4]) it was 1.

Turning to `CC(C)c1ccc(S(=O)(=O)c2ccc(F)cc2)cc1S(=O)(=O)NC1CCN(C(=O)C2CC2)CC1` [Example 530, N-[1-(cyclopropylcarbonyl)piperidin-4-yl]-5-[(4-fluorophenyl)sulfonyl]-2-isopropylbenzenesulfonamide], the pIC50 on SFRP-1 [1] was 6.15. The fold induction at 15 µM on SFRP-1 [2] (setting [3]) came out at 3; on SFRP-1 [2] (setting [4]), 1.

On SFRP-1 [1], `CC(C)c1ccc(S(=O)(=O)c2ccc(F)cc2)cc1S(=O)(=O)NC1CCN(C(=O)c2ccc(C#N)cc2)CC1` [Example 531, N-[1-(4-cyanobenzoyl)piperidin-4-yl]-5-[(4-fluorophenyl)sulfonyl]-2-isopropylbenzenesulfonamide] gave a negative logarithm of the IC50 (pIC50) of 6.40. For the same compound, the fold induction at 15 µM on SFRP-1 [2] (setting [3]) stood at 2.5; on SFRP-1 [2] (setting [4]), 1.1.

For the compound `CC(C)c1ccc(S(=O)(=O)c2ccc(F)cc2)cc1S(=O)(=O)NCC1CCCO1` (stereo not drawn) [Example 532, 5-[(4-fluorophenyl)sulfonyl]-2-isopropyl-N-(tetrahydrofuran-2-ylmethyl)benzenesulfonamide], the pIC50 at SFRP-1 [1] was 5.40. In addition, the fold induction at 15 µM worked out at 2.8 at SFRP-1 [2] (setting [3]) and 1.1 on SFRP-1 [2] (setting [4]).

Take `CC(C)c1ccc(S(=O)(=O)c2ccc(F)cc2)cc1S(=O)(=O)NCCc1ccncc1` [Example 533, 5-[(4-fluorophenyl)sulfonyl]-2-isopropyl-N-(2-pyridin-4-ylethyl)benzenesulfonamide]: on SFRP-1 [1], the pIC50 is 6.30. The fold induction at 15 µM at SFRP-1 [2] (setting [3]) was determined as 3.7; at SFRP-1 [2] (setting [4]), 1.1.

For the compound `CC(C)c1ccc(S(=O)(=O)c2ccc(F)cc2)cc1S(=O)(=O)NCCc1cccnc1` [Example 534, 5-[(4-fluorophenyl)sulfonyl]-2-isopropyl-N-(2-pyridin-3-ylethyl)benzenesulfonamide], at SFRP-1 [1], the negative-log IC50 (pIC50) is 6.70 and 6.52. The fold induction at 15 µM amounted to 4 on SFRP-1 [2] (setting [3]) and 1.1 on SFRP-1 [2] (setting [4]).

`CC(C)c1ccc(S(=O)(=O)c2ccc(NCCC#N)cc2)cc1S(=O)(=O)NC1CCOCC1` [Example 535, 5-({4-[(2-cyanoethyl)amino]phenyl}sulfonyl)-2-isopropyl-N-(tetrahydro-2H-pyran-4-yl)benzenesulfonamide] had a negative-log IC50 (pIC50) on SFRP-1 [1] of 6.40. Further, the fold induction at 15 µM on SFRP-1 [2] (setting [3]) amounted to 3.8; at SFRP-1 [2] (setting [4]), 1.2.

On SFRP-1 [1], `CC(C)c1ccc(S(=O)(=O)c2ccc(NCCC#N)cc2)cc1S(=O)(=O)NCC1CCOCC1` [Example 536, 5-({4-[(2-cyanoethyl)amino]phenyl}sulfonyl)-2-isopropyl-N-(tetrahydro-2H-pyran-4-ylmethyl)benzenesulfonamide] gave a pIC50 of 6.40. Also, the fold induction at 15 µM on SFRP-1 [2] (setting [3]) is 3; on SFRP-1 [2] (setting [4]), 1.2.

`CC(C)c1ccc(S(=O)(=O)c2ccc(NCCC#N)cc2)cc1S(=O)(=O)NCCC1CCOCC1` [Example 537, 5-({4-[(2-cyanoethyl)amino]phenyl}sulfonyl)-2-isopropyl-N-[2-(tetrahydro-2H-pyran-4-yl)ethyl]benzenesulfonamide]: the pIC50 at SFRP-1 [1] is 6.15. Besides, the fold induction at 15 µM on SFRP-1 [2] (setting [3]) came out at 2.9; on SFRP-1 [2] (setting [4]), 1.1.

`CC(C)c1ccc(S(=O)(=O)c2cccc(C#N)c2)cc1S(=O)(=O)NCCc1ccccn1` [Example 539, 5-[(3-cyanophenyl)sulfonyl]-2-isopropyl-N-(2-pyridin-2-ylethyl)benzenesulfonamide]: on SFRP-1 [1], the pIC50 is 5.59. Besides, the fold induction at 15 µM on SFRP-1 [2] (setting [3]) was determined as 2.9; on SFRP-1 [2] (setting [4]), 1.2.

In turn, `CC(C)c1ccc(S(=O)(=O)c2ccc3[nH]ccc3c2)cc1S(=O)(=O)NCCc1ccccn1` [Example 540, 5-(1H-indol-5-ylsulfonyl)-2-isopropyl-N-(2-pyridin-2-ylethyl)benzenesulfonamide] had a pIC50 at SFRP-1 [1] of 6.70. Also, the fold induction at 15 µM on SFRP-1 [2] (setting [3]) came out at 3.6; at SFRP-1 [2] (setting [4]), 1.2.

With `Cc1ccccc1S(=O)(=O)c1ccc(C(C)C)c(S(=O)(=O)NC2CCOCC2)c1` [Example 541, 2-isopropyl-5-[(2-methylphenyl)sulfonyl]-N-(tetrahydro-2H-pyran-4-yl)benzenesulfonamide], the negative logarithm of the IC50 (pIC50) on SFRP-1 [1] was 5.82. The figures for the fold induction at 15 µM at SFRP-1 [2] (setting [3]) and on SFRP-1 [2] (setting [4]) were 3.5 and 1.2, respectively.

At SFRP-1 [1], `Cc1c(Cl)cccc1S(=O)(=O)c1ccc(C(C)C)c(S(=O)(=O)NC2CCOCC2)c1` [Example 542, 5-[(3-chloro-2-methylphenyl)sulfonyl]-2-isopropyl-N-(tetrahydro-2H-pyran-4-yl)benzenesulfonamide] had a negative-log IC50 (pIC50) of 5.85. The fold induction at 15 µM on SFRP-1 [2] (setting [3]) turned out to be 2.7; at SFRP-1 [2] (setting [4]) it was 1.1.

As to `CNc1ccc(S(=O)(=O)c2ccc(C(C)C)c(S(=O)(=O)NCC3CCOCC3)c2)cc1` [Example 543, 2-isopropyl-5-{[4-(methylamino)phenyl]sulfonyl}-N-(tetrahydro-2H-pyran-4-ylmethyl)benzenesulfonamide], the negative logarithm of the IC50 (pIC50) on SFRP-1 [1] is 6.10 and 5.80. Besides, the fold induction at 15 µM is 2.7 at SFRP-1 [2] (setting [3]) and 1.1 on SFRP-1 [2] (setting [4]).

Regarding `CC(C)c1ccc(S(=O)(=O)c2ccc(N(C)C)cc2)cc1S(=O)(=O)NC1CCOCC1` [Example 544, 5-{[4-(dimethylamino)phenyl]sulfonyl}-2-isopropyl-N-(tetrahydro-2H-pyran-4-yl)benzenesulfonamide], the negative-log IC50 (pIC50) at SFRP-1 [1] is 6.10 and 5.77. Further, the values for the fold induction at 15 µM at SFRP-1 [2] (setting [3]) and at SFRP-1 [2] (setting [4]) were 2.7 and 1.2, respectively.

For `CC(C)c1ccc(S(=O)(=O)c2ccc(N(C)C)cc2)cc1S(=O)(=O)NCC1CCOCC1` [Example 545, 5-{[4-(dimethylamino)phenyl]sulfonyl}-2-isopropyl-N-(tetrahydro-2H-pyran-4-ylmethyl)benzenesulfonamide], the pIC50 at SFRP-1 [1] was 5.70 and 5.40. Further, the fold induction at 15 µM at SFRP-1 [2] (setting [3]) was 2.5; on SFRP-1 [2] (setting [4]), 1.1.

For the compound `CC(C)c1ccc(S(=O)(=O)c2ccc(N(C)C)cc2)cc1S(=O)(=O)NCCC1CCOCC1` [Example 546, 5-{[4-(dimethylamino)phenyl]sulfonyl}-2-isopropyl-N-[2-(tetrahydro-2H-pyran-4-yl)ethyl]benzenesulfonamide], the pIC50 at SFRP-1 [1] is 5.82 and 5.59. For the same compound, the fold induction at 15 µM on SFRP-1 [2] (setting [3]) came to 2.2; at SFRP-1 [2] (setting [4]), 1.2.

Take `CC(C)c1ccc(S(=O)(=O)c2ccc(N3CCN(C)CC3)cc2)cc1S(=O)(=O)NC1CCOCC1` [Example 547, 2-isopropyl-5-{[4-(4-methylpiperazin-1-yl)phenyl]sulfonyl}-N-(tetrahydro-2H-pyran-4-yl)benzenesulfonamide]: the pIC50 at SFRP-1 [1] was 6.00 and 5.60. Also, the fold induction at 15 µM at SFRP-1 [2] (setting [3]) amounted to 3.7; at SFRP-1 [2] (setting [4]) it was 1.3.

Take `CC(C)c1ccc(S(=O)(=O)c2ccc(N3CCN(C)CC3)cc2)cc1S(=O)(=O)NCC1CCOCC1` [Example 548, 2-isopropyl-5-{[4-(4-methylpiperazin-1-yl)phenyl]sulfonyl}-N-(tetrahydro-2H-pyran-4-ylmethyl)benzenesulfonamide]: the negative logarithm of the IC50 (pIC50) on SFRP-1 [1] is 5.66. Further, the fold induction at 15 µM at SFRP-1 [2] (setting [3]) amounted to 2.5; at SFRP-1 [2] (setting [4]), 1.2.
